Source: patent US20240390487A1, “TLR AGONISTS FOR REDUCING ACTIVATION-INDUCED PD-1 EXPRESSION ON T CELLS AND METHODS OF USE” (WISCONSIN ALUMNI RESEARCH FOUNDATION, priority 2016, published 2024)

How the values were obtained:
OT-1 CD8+ T cells = assay: Adoptive transfer of OT-1 T cells and immunization of C57BL/6 mice, marker expression on splenic OT-1 T cells; format: in vivo; details: OVA or FT peptide immunization with TLR ligand versus peptide alone; splenocytes up to 14 days; early after T-cell activation
Text: Vaccine type can affect expression of T-cell checkpoint molecules on activated CD8+ T cells: This Example used an ovalbumin vaccination model. OT-1 cells were adoptively transferred to naïve C57BL/6 mice. The day after transfer, mice were immunized once with (a) DNA encoding ovalbumin, (b) Listeria monocytogenes (Lm) encoding ovalbumin, (c) OVA257-264 peptide (SIINFEKL (SEQ ID NO:1)), (d) SIINFEKL peptide (SEQ ID NO:1) with DNA vector, (e) DNA vector alone, (f) Lm encoding control vector with no antigen, or (g) NS (non-specific) peptide. Splenocytes were collected the day after vaccination for expression of cell surface markers on antigen-specific OT-1 cells. […] LAG-3 expression was not reduced in the presence of Lm co-administered with peptide.
TLR stimulation at the time of T-cell activation reduced expression of PD-1 in vivo: To determine whether TLR stimulation at the time of T-cell activation with vaccination elicited a similar reduction in PD-1 in vivo, OT-1 cells were adoptively transferred to naïve C57BL/6 mice as above, and immunized once with OVA or FT peptide (or non-specific peptide) one day later in the presence or absence of a TLR 1/2, TLR7, or TLR9 ligand. Splenocytes were collected from groups up to 14 days after immunization and evaluated for expression of 4-1BB, PD-1 and LAG-3.
Adoptive transfer and immunization of wild type C57BL/6 (B6) mice: OT-1 splenocytes were harvested and CD8+ T cells were isolated as described above. 2×10^6 OT-1 T cells were adoptively transferred into 6- to 10-week old female B6 mice via intraperitoneal injection. The day following transfer, mice were immunized subcutaneously with 100 μg SIINFEKL peptide (SEQ ID NO:1) in PBS without adjuvant, intradermally with 100 μg plasmid encoding full length secreted chicken egg ovalbumin (pCI-neo-sOVA (psOVA), Addgene plasmid #25098, Cambridge, MA), intraperitoneally with 5×10^6 cfu of a Listeria monocytogenes vector encoding ovalbumin (Lm-OVA, gift of JD Sauer), or vehicle or corresponding wild-type Lm or DNA plasmid vector. TLR agonists were co-injected with the vaccine at the following concentrations: 20 μg/mouse Pam3CSK4, 100 μg/mouse Gardiquimod, 50 μg/mouse ODN 1826, or vehicle. Mice were euthanized at the times indicated. Spleens were collected, processed as described above, and T-cell populations analyzed by flow cytometry. Data collected on different days were normalized using rainbow beads (Spherotech, Lake Forest, IL; RFP-30-5A).

Purified DC = assay: IL-12 p70 ELISA of culture supernatant of TLR-agonist-stimulated DC; format: cell-based, mice; details: 24 hours, IL12 p70 by ELISA, versus media alone
Procedure: FIGS. 14A-14D. Changes in PD-1 expression following TLR stimulation are mediated by IL-12 secreted from APCs. Panel A: Purified OT-1 T cells (T), B cells (B), or dendritic cells (DC) were activated with SIINFEKL peptide (SEQ ID NO:1, OVA) or with a non-specific peptide (NS) in the presence of either TLR1/2 (TLR1/2) agonist, TLR7 agonist (TLR7), or media alone. After 24 hours, cells were washed and co-cultured with naïve purified OT-1 CD8+ T cells for an additional 24 hours and then assessed for expression of the indicated surface receptors (4-1BB, CD3, PD-1, LAG3, CTLA-4, and TIM3) by flow cytometry. Shown is the MFI for each marker, with samples assessed in triplicate. Panel B: Purified DC were stimulated in the presence of TLR1/2 agonist, TLR7 agonist, or media alone. After 24 hours, media was collected and used for culture of purified OT-1 CD8+ T cells with naïve DC in the presence of SIINFEKL peptide (SEQ ID NO:1, OVA) or non-specific (NS) peptide. After 24 hours, cells were assessed for expression of the indicated surface receptors (4-1BB, PD-1, LAG3, and CTLA-4) by flow cytometry. Shown is mean and standard error of the MFI for each marker, with samples assessed in triplicate. Panel C: Purified DC were stimulated in the presence of TLR1/2 agonist (Pam3), TLR3 agonist (PolyIC), TLR4 agonist (MPLA), TLR7/8 agonists (Gard, R848), TLR9 agonist (ODN), or media only (none) for 24 hours. Culture supernatant was then evaluated for the presence of IL12 p70 by ELISA. Asterisks indicate significant (p<0.05) IL-12 release compared to media alone. Panel D: Purified DC were stimulated in the presence of TLR1/2 agonist, TLR7 agonist, or media alone. After 24 hours, medium was collected and used for culture of purified OT-1 CD8+ T cells with naïve DC in the presence of SIINFEKL peptide (SEQ ID NO:1, OVA) and, where indicated, 0.1 ng/ml IL-12 or 0.12 μg/mL anti-IL-12 antibody. After 24 hours, cells were assessed for expression of the indicated surface receptors (4-1BB, PD-1, LAG3, and CTLA-4) by flow cytometry. Shown is mean and standard error of the MFI for each marker, with samples assessed in triplicate and are representative of two similar experiments. Asterisks indicate P<0.01.
Changes in PD-1 expression following TLR stimulation are mediated by IL-12 secreted from APCs: TLR are expressed by both T cells and professional APC. To determine if the effects on T-cell checkpoint expression were mediated by direct effects of TLR ligands on T cells or APC, purified OT-1 T cells were activated with SIINFEKL peptide (SEQ ID NO:1) alone or in the presence of TLR1/2 or TLR7 agonist, or with purified DC or B cells pre-treated with TLR agonists. After 24 hours cells were evaluated for expression of 4-1BB, CD3, PD-1, LAG-3, CTLA-4, and TIM-3. […]

| Compound | PD-1 expression on OT-1 CD8+ T cells in vivo (OT-1 CD8+ T cells) | secretion of IL-12 by DC (Purified DC) |
| --- | --- | --- |
| CCNCc1nc2c(N)nc3ccccc3c2n1CC(C)(C)O [Gardiquimod] | significantly reduced | greatest secretion |
| Monophosphoryl Lipid A [MPLAs] | – | No significant secretion |
| Pam3CSK4 | significantly reduced | greatest secretion |
| Poly(I:C) [PolyI:C] | – | No significant secretion |
